What was measured:
bedstraw = assay: Test B pre/postemergence bedstraw; type: in vivo, Galium aparine
Outline: (§1)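 Herbicidal effect was estimated by eye on a ten-point control scale after plants spent twelve to sixteen days in a greenhouse following soil or foliar treatment. Foliar sprays targeted plants at one to four leaves; all doses were formulated in a non-phytotoxic solvent with surfactant.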

blackgrass = assay: Test B pre/postemergence blackgrass; type: in vivo, Alopecurus myosuroides
Outline: as §1

surinam grass = assay: Test B pre/postemergence surinam grass; type: in vivo, Brachiaria decumbens
Outline: as §1

cocklebur = assay: Test B pre/postemergence cocklebur; type: in vivo, Xanthium strumarium
Outline: as §1

corn = assay: Test B pre/postemergence corn; type: in vivo, Zea mays
Outline: as §1

crabgrass = assay: Test B pre/postemergence crabgrass; type: in vivo, Digitaria sanguinalis
Outline: as §1

giant foxtail = assay: Test B pre/postemergence giant foxtail; type: in vivo, Setaria faberii
Outline: as §1

morningglory = assay: Test B pre/postemergence morningglory; type: in vivo, Ipomoea hederacea
Outline: as §1

pigweed = assay: Test B pre/postemergence pigweed; type: in vivo, Amaranthus retroflexus
Outline: as §1

rape = assay: Test B pre/postemergence rape; type: in vivo, Brassica napus
Outline: as §1

soybean = assay: Test B pre/postemergence soybean; type: in vivo, Glycine max
Outline: as §1

sugar beet = assay: Test B pre/postemergence sugar beet; type: in vivo, Beta vulgaris
Outline: as §1

velvetleaf = assay: Test B pre/postemergence velvetleaf; type: in vivo, Abutilon theophrasti
Outline: as §1

wheat = assay: Test B pre/postemergence wheat; type: in vivo, Triticum aestivum
Outline: as §1

wild oat = assay: Test B pre/postemergence wild oat; type: in vivo, Avena fatua
Outline: as §1

purple nutsedge = assay: Test B pre/postemergence purple nutsedge; type: in vivo, Cyperus rotundus
Outline: as §1

[1] = Postemergence, Rate 62 g/ha, scale of 0 to 10, 0 is no effect, 10 is complete control
[2] = Preemergence, Rate 62 g/ha, scale 0 to 10 (0 no effect, 10 complete control)
[3] = Preemergence, Rate 125 g/ha, scale 0 to 10, 0 is no effect, 10 is complete control
[4] = Preemergence, Rate 500 g/ha, scale of 0 to 10 where 0 is no effect and 10 is complete control
[5] = Rate 250 g/ha, Postemergence, scale of 0 to 10 where 0 is no effect and 10 is complete control
[6] = Postemergence, Rate 125 g/ha, scale 0 to 10, 0 is no effect, 10 is complete control
[7] = Postemergence, Rate 500 g/ha, scale of 0 to 10 where 0 is no effect and 10 is complete control

CCCCCn1c(=O)on(C(=O)N(c2ccccc2)C(C)C)c1=O [Compound 557]
Bedstraw plant response rating (bedstraw; [1]): 0 | Bedstraw plant response rating (bedstraw; [2]): 0 | Bedstraw plant response rating (bedstraw; [3]): 0 | Bedstraw plant response rating (0 to 10 scale) (bedstraw; Preemergence, Rate 250 g/ha): 0 | Bedstraw plant response rating (bedstraw; [4]): 0 | Plant response rating, Bedstraw (bedstraw; [5]): 0 | Blackgrass plant response rating (blackgrass; [1]): 0 | Blackgrass plant response rating (blackgrass; [6]): 0 | Plant response rating, Blackgrass (blackgrass; [7]): 0 | Blackgrass plant response rating (blackgrass; [2]): 6 | Blackgrass plant response rating (blackgrass; [3]): 6 | Blackgrass plant response rating (0 to 10 scale) (blackgrass; Preemergence, Rate 250 g/ha): 8 | Blackgrass plant response rating (blackgrass; [4]): 8 | Plant response rating, Blackgrass (blackgrass; [5]): 0 | B. signalgrass plant response rating (surinam grass; [1]): 0 | B. signalgrass plant response rating (surinam grass; [6]): 2 | Plant response rating, B. signalgrass (surinam grass; [7]): 2 | B. signalgrass plant response rating (surinam grass; [2]): 4 | B. signalgrass plant response rating (surinam grass; [3]): 6 | B. signalgrass plant response rating (0 to 10 scale, 0 is no effect, 10 is complete control) (surinam grass; Preemergence, Rate 250 g/ha): 7 | B. signalgrass plant response rating (surinam grass; [4]): 7 | Plant response rating, B. signalgrass (surinam grass; [5]): 2 | Cocklebur plant response rating (cocklebur; [1]): 0 | Cocklebur plant response rating (cocklebur; [6]): 0 | Plant response rating, Cocklebur (cocklebur; [7]): 0 | Cocklebur plant response rating (cocklebur; [2]): 0 | Cocklebur plant response rating (cocklebur; [3]): 0 | Cocklebur plant response rating (0 to 10 scale) (cocklebur; Preemergence, Rate 250 g/ha): 0 | Cocklebur plant response rating (cocklebur; [4]): 0 | Plant response rating, Cocklebur (cocklebur; [5]): 0 | Corn plant response rating (corn; [1]): 0 | Corn plant response rating (corn; [6]): 0 | Plant response rating, Corn (corn; [7]): 2 | Corn plant response rating (corn; [2]): 0 | Corn plant response rating (corn; [3]): 0 | Corn plant response rating (0 to 10 scale) (corn; Preemergence, Rate 250 g/ha): 0 | Corn plant response rating (corn; [4]): 0 | Plant response rating, Corn (corn; [5]): 0 | Crabgrass plant response rating (crabgrass; [1]): 0 | Crabgrass plant response rating (crabgrass; [6]): 5 | Plant response rating, Crabgrass (crabgrass; [7]): 4 | Crabgrass plant response rating (crabgrass; [2]): 9 | Crabgrass plant response rating (crabgrass; [3]): 9 | Crabgrass plant response rating (0 to 10 scale) (crabgrass; Preemergence, Rate 250 g/ha): 10 | Crabgrass plant response rating (crabgrass; [4]): 10 | Plant response rating, Crabgrass (crabgrass; [5]): 4 | Giant foxtail plant response rating (giant foxtail; [1]): 0 | Giant foxtail plant response rating (giant foxtail; [6]): 6 | Plant response rating, Giant foxtail (giant foxtail; [7]): 6 | Giant foxtail plant response rating (giant foxtail; [2]): 9 | Giant foxtail plant response rating (giant foxtail; [3]): 9 | Giant foxtail plant response rating (0 to 10 scale) (giant foxtail; Preemergence, Rate 250 g/ha): 10 | Giant foxtail plant response rating (giant foxtail; [4]): 10 | Plant response rating, Giant foxtail (giant foxtail; [5]): 6 | Morningglory plant response rating (morningglory; [1]): 5 | Morningglory plant response rating (morningglory; [6]): 8 | Plant response rating, Morningglory (morningglory; [7]): 8 | Morningglory plant response rating (morningglory; [2]): 0 | Morningglory plant response rating (morningglory; [3]): 0 | Morningglory plant response rating (0 to 10 scale) (morningglory; Preemergence, Rate 250 g/ha): 0 | Morningglory plant response rating (morningglory; [4]): 0 | Redroot pigweed plant response rating (pigweed; [1]): 0 | Plant response rating, Redroot pigweed (pigweed; [7]): 0 | Redroot pigweed plant response rating (pigweed; [2]): 0 | Redroot pigweed plant response rating (pigweed; [3]): 0 | Redroot pigweed plant response rating (0 to 10 scale) (pigweed; Preemergence, Rate 250 g/ha): 3 | Redroot pigweed plant response rating (pigweed; [4]): 6 | Plant response rating, Redroot pigweed (pigweed; [5]): 0 | Rape plant response rating (rape; [1]): 0 | Rape plant response rating (rape; [6]): 0 | Plant response rating, Rape (rape; [7]): 0 | Rape plant response rating (rape; [2]): 0 | Rape plant response rating (rape; [3]): 0 | Rape plant response rating (0 to 10 scale) (rape; Preemergence, Rate 250 g/ha): 0 | Rape plant response rating (rape; [4]): 2 | Plant response rating, Rape (rape; [5]): 0 | Soybean plant response rating (soybean; [1]): 0 | Plant response rating, Soybean (soybean; [7]): 2 | Soybean plant response rating (soybean; [2]): 0 | Soybean plant response rating (soybean; [3]): 0 | Soybean plant response rating (0 to 10 scale) (soybean; Preemergence, Rate 250 g/ha): 0 | Soybean plant response rating (soybean; [4]): 0 | Plant response rating, Soybean (soybean; [5]): 0 | Sugarbeets plant response rating (sugar beet; [1]): 0 | Plant response rating, Sugarbeets (sugar beet; [7]): 0 | Sugarbeets plant response rating (sugar beet; [2]): 2 | Sugarbeets plant response rating (sugar beet; [3]): 3 | Sugarbeets plant response rating (0 to 10 scale) (sugar beet; Preemergence, Rate 250 g/ha): 3 | Sugarbeets plant response rating (sugar beet; [4]): 4 | Plant response rating, Sugarbeets (sugar beet; [5]): 0 | Velvetleaf plant response rating (velvetleaf; [1]): 0 | Plant response rating, Velvetleaf (velvetleaf; [7]): 2 | Velvetleaf plant response rating (velvetleaf; [2]): 0 | Velvetleaf plant response rating (velvetleaf; [3]): 0 | Velvetleaf plant response rating (0 to 10 scale) (velvetleaf; Preemergence, Rate 250 g/ha): 0 | Velvetleaf plant response rating (velvetleaf; [4]): 0 | Plant response rating, Velvetleaf (velvetleaf; [5]): 0 | Wheat plant response rating (wheat; [1]): 0 | Plant response rating, Wheat (wheat; [7]): 0 | Wheat plant response rating (wheat; [2]): 0 | Wheat plant response rating (wheat; [3]): 0 | Wheat plant response rating (0 to 10 scale) (wheat; Preemergence, Rate 250 g/ha): 0 | Wheat plant response rating (wheat; [4]): 3 | Plant response rating, Wheat (wheat; [5]): 0 | Wild oats plant response rating (wild oat; [1]): 0 | Plant response rating, Wild oats (wild oat; [7]): 0 | Wild oats plant response rating (wild oat; [2]): 0 | Wild oats plant response rating (wild oat; [3]): 2 | Wild oats plant response rating (0 to 10 scale) (wild oat; Preemergence, Rate 250 g/ha): 0 | Wild oats plant response rating (wild oat; [4]): 7 | Plant response rating, Wild oats (wild oat; [5]): 0 | Nutsedge plant response rating (purple nutsedge; [1]): 0 | Nutsedge plant response rating (purple nutsedge; [6]): 0 | Plant response rating, Nutsedge (purple nutsedge; [7]): 0 | Nutsedge plant response rating (purple nutsedge; [2]): 0 | Nutsedge plant response rating (purple nutsedge; [3]): 0 | Nutsedge plant response rating (0 to 10 scale) (purple nutsedge; Preemergence, Rate 250 g/ha): 0 | Nutsedge plant response rating (purple nutsedge; [4]): 0 | Plant response rating, Nutsedge (purple nutsedge; [5]): 0
